Target: GABAC receptor ρ1 subunit (homomeric) (Homo sapiens, UniProt P24046)
Assay: two-electrode voltage clamp in Xenopus oocytes, inhibition of GABA
Assay type: cell-based

GABAC receptor ρ1 subunit (homomeric), sequence (P24046 22-479): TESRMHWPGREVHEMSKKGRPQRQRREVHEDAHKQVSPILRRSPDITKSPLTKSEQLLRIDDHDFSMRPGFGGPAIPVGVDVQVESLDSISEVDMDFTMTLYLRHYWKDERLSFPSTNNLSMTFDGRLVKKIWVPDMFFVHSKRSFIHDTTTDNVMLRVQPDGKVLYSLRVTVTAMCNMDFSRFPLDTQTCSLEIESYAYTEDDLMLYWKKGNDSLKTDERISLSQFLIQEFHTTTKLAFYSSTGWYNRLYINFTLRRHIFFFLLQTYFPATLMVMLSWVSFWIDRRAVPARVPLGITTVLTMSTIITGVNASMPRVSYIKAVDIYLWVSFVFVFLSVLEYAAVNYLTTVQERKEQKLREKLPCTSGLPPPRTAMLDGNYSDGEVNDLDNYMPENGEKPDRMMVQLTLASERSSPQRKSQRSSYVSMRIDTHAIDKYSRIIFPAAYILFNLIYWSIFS

## Oc1ccc(/C=C/c2cc(O)cc(O)c2)cc1 [Res, Resveratrol]
  IC50: 28.9 ± 2.8 µM

Reference: paper PMC3634096 (The Korean Journal of Physiology & Pharmacology : …, 2013)
